For data set [1] the following is noted: in vivo; cited from earlier work.
For data set [2], the system named is E. coli. Kind of data set: In vitro bacterial growth in plasma from transfused mice. The class given is cell-based. As to the method: Results shown in FIG. 15A are representative of two experiments. C57BL/6 mice were infused with a sub-clinical dose of LPS (E. coli 0111:B4; 30 μg per mouse by tail vein injection) followed by transfusion of 400 μL of fresh RBCs or stored RBCs. Mice were sacrificed at 24-hour post-transfusion and plasma cytokines measured (n=5 per group). *P=0.008, **P=0.003 as compared to mice infused LPS+ stored RBCs. To obtain the results shown in FIG. 15B, plasma (100 μL) was obtained from mice 2-hours post-transfusion with 400 μL of fresh RBCs (n=15), stored RBCs (n=24), stored RBC-derived supernatant (n=12), washed stored RBCs (n=13), or ghosts prepared from stored RBCs (n=8). Plasma was also obtained from control untransfused mice (n=14) or 24-hours post-transfusion with stored RBCs (n=8). Samples were incubated at 37° C. with shaking with about 1×10^6 CFU of E. coli, as labeled. Bacterial growth was monitored every 30 minutes by absorbance at 600 nm for up to 5 hours. […] To obtain the results shown in FIG. 15C, pooled plasma samples (100 μL) from mice 2 hours after transfusion with 400 μL of fresh RBCs or stored RBCs were supplemented with either ferric citrate (20 μM), sodium citrate (20 μM), bovine serum albumin (BSA; 80 μM), or protoporphyrin IX (20 μM), and then incubated at 37° C. with shaking with ˜1×10^6 CFU of E. coli. Bacterial growth was monitored every 30 minutes by absorbance at 600 nm for up to 5 hours in replicates of 5 per group. […] To obtain the results shown in FIG. 15D, pooled plasma (n=4) were incubated with the iron chelator, DFO (20 μM), or with the iron-chelated form of DFO, ferroxamine (FO) (20 μM) and inoculated with E. coli as shown for the previous experiment. […] To obtain the results shown in FIG. 15E, pooled plasma (n=5) was incubated with the iron chelator, 2,2′-dipyridyl (400 μM), with or without ferric citrate (133 μM) and inoculated with E. coli, as shown for the previous experiment. […] Results are representative of at least 2 experiments and are shown as mean (±SEM). Note that the absence of an error bar is indicative of highly reproducible replicates with pooled plasma.
A pathogenic strain of E. coli, obtained from an anonymous patient with a urinary tract infection, was used. For each experiment, a sample from a frozen stock of this E. coli was inoculated into Nutrient Broth (Difco, BD Biosciences) and grown to mid-log phase (about 3 hours). Bacteria were then washed twice in PBS and re-suspended to about 200,000 colony forming units (CFU)/μL. Five microliters of bacterial suspension were then added to 100 μL of heparinized plasma in a 96-well EIA/RIA plate (Costar, Sigma). Bacterial growth was measured by absorbance at 600 nm. In some experiments, 20 μM of ferric citrate or sodium citrate (Sigma), bovine serum albumin, 2,2′-dipyridyl (all from Sigma-Aldrich), protoporphyrin IX (Frontier Scientific, Logan, Utah), or DFO were added to plasma before bacterial inoculation.
Significance between two means was calculated using a two-tailed Mann-Whitney U test. Significance relevant to bacterial growth in vitro was determined by converting each growth curve to an area under the curve (AUC) value followed by a 2-tailed Mann-Whitney U test to compare mean AUC for each group. A value for P less than 0.05 was considered significant. Statistical analysis was performed using Prism 5 (GraphPad Software, Inc., La Jolla, Calif.).

Data set [3] relates to pro-inflammatory response induced by stored RBC transfusions. Kind of data set: DFO or FO infusion immediately before stored RBC transfusion, plasma cytokine/chemokine levels (FIG. 16A, 19). The class given is in vivo, mice. To be noted: 2 hours. The protocol: To obtain the results shown in FIG. 16A, mice were pretreated with a PBS vehicle control (n=28) or with 3 mg of DFO, with (n=15) or without (n=31) the addition of equimolar ferric citrate, immediately before transfusion with stored RBCs (400 μL). Mice were sacrificed 2 hours after transfusion, and plasma cytokine levels were measured; *P<0.05; **P<0.01; ***P<0.001 compared with mice infused with PBS vehicle and transfused stored RBCs. To obtain the results shown in FIG. 16B, bioluminescence was quantified for 24 hours after transfusion over the hepatosplenic region of SAA1-luciferase reporter mice transfused with 200 μL of fresh RBCs (n=3; •), the PBS vehicle control and stored RBCs (n=3; ▪), or 3 mg of DFO and stored RBCs (n=6; ▴); P=0.095 at 4 and 6 hours after transfusion comparing vehicle-treated and DFO-treated mice. […]
Mice were untreated or pretreated with 3 mg of DFO immediately before stored RBC transfusion (400 μL; n=14 per group). Mice were sacrificed 2-hours post-transfusion and plasma cytokine/chemokine levels measured. […]
RBCs (200 or 400 μL at 17.0-17.5 g/dL of hemoglobin; 1 or 2 equivalent human units, respectively) were transfused through the retro-orbital plexus of isoflurane-anesthetized mice. […] Survival was calculated by comparing the ratio of Dil- to DiO-labeled RBCs in the sample to the ratio in the transfuse itself. […]

Data set [4] deals with TNF-α. The settings on record: LPS-challenged mice; reference [119]; cited from earlier work.
The mark [5] stands for this setting: added to pooled plasma from mice transfused with fresh RBCs, 20 μM (bovine serum albumin 80 μM).

Consider seven compounds from US20120294826A1, “METHODS, KITS AND COMPOSITIONS FOR AMELIORATING ADVERSE EFFECTS ASSOCIATED WITH TRANSFUSION OF AGED RED BLOOD CELLS” (priority 2009, published 2012).

For the compound `O=C(O)c1ccc(-n2nc(-c3ccccc3O)nc2-c2ccccc2O)cc1` [deferasirox], in data set [1], the t1/2 was 8 to 16 h.
On to `CC(=O)N([O-])CCCCCNC(=O)CCC(=O)N([O-])CCCCCNC(=O)CCC(=O)N([O-])CCCCCN.[Fe+3]` [FO, ferroxamine], for which the bacterial growth result in data set [2] (20 μM added to pooled plasma from mice transfused with stored RBCs, absorbance at 600 nm up to 5 hours) was “prevented the inhibition of bacterial growth”. In data set [3] (3 mg DFO, or FO (equimolar DFO and ferric citrate), before stored RBCs (400 μL)), the proinflammatory cytokine response entry was “as effective as DFO”. Also, the TNF-α levels result in data set [4] was “reduced TNF-α levels to a similar extent”.
As to ferric citrate [iron citrate], the bacterial growth entry in data set [2] (setting [5]) was “promoted to a similar level as in plasma from mice transfused with stored RBCs”.
Same read-out and setting: under `O=C([O-])CC(O)(CC(=O)[O-])C(=O)[O-].[Na+].[Na+].[Na+]` [sodium citrate] stands “not”.
Take `c1ccc(-c2ccccn2)nc1` [2,2′-dipyridyl]: the bacterial growth result in data set [2] (2,2′-dipyridyl 400 μM in pooled plasma from mice transfused with stored RBCs) is on record as “greater inhibition of bacterial growth”. Besides, the “inhibitory effect on bacterial growth” value in data set [2] (2,2′-dipyridyl preincubated with a one-third molar ratio of ferric citrate (133 μM)) was “abrogated”.
Consider `CC(=O)N(O)CCCCCNC(=O)CCC(=O)N(O)CCCCCNC(=O)CCC(=O)N(O)CCCCCN` [DFO, deferoxamine], for which the t1/2 in data set [1] is 6 h. Moreover, in data set [3] (3 mg (about 120 mg/kg) DFO i.v. immediately before stored RBCs, mean±s.e.m., without DFO 212.8±30.8, P=0.005), the “plasma IL-6 levels” value was 98.4 ± 10.1 pg/mL.
As to “bovine serum albumin: bovine serum albumin control supplement”, the bacterial growth entry in data set [2] (setting [5]) is recorded as “not”.
